Measured values as given in the supplement of paper PMC13380429.

Assays:
Details in all cases: 72 h
Vero E6 [1] = test: drug sensitivity score (DSS) for viability; higher = more toxic; extreme values may be limits of the assay
U2OS [2] = test: as above
HepG2 [3] = test: as above
Calu-3 [4] = test: as above
Caco-2 [5] = test: as above
Vero E6 [6] = test: cell viability relative to DMSO; higher = less toxic
U2OS [7] = test: as above
HepG2 [8] = test: as above
Calu-3 [9] = test: as above
Caco-2 [10] = test: as above
Vero E6 [11] = test: relative viability EC50 (midpoint between 100% and the lowest measured viability); higher = less toxic
U2OS [12] = test: as above
HepG2 [13] = test: as above
Calu-3 [14] = test: as above
Caco-2 [15] = test: as above

SMILES | drug sensitivity score (Vero E6 [1]) | drug sensitivity score (U2OS [2]) | drug sensitivity score (HepG2 [3]) | drug sensitivity score (Calu-3 [4]) | drug sensitivity score (Caco-2 [5]) | cell viability (Vero E6 [6]; 1 nM) [%] | cell viability (Vero E6 [6]; 10 nM) [%] | cell viability (Vero E6 [6]; 100 nM) [%] | cell viability (Vero E6 [6]; 1000 nM) [%] | cell viability (Vero E6 [6]; 10000 nM) [%] | cell viability (U2OS [7]; 1 nM) [%] | cell viability (U2OS [7]; 10 nM) [%] | cell viability (U2OS [7]; 100 nM) [%] | cell viability (U2OS [7]; 1000 nM) [%] | cell viability (U2OS [7]; 10000 nM) [%] | cell viability (HepG2 [8]; 1 nM) [%] | cell viability (HepG2 [8]; 10 nM) [%] | cell viability (HepG2 [8]; 100 nM) [%] | cell viability (HepG2 [8]; 1000 nM) [%] | cell viability (HepG2 [8]; 10000 nM) [%] | cell viability (Calu-3 [9]; 1 nM) [%] | cell viability (Calu-3 [9]; 10 nM) [%] | cell viability (Calu-3 [9]; 100 nM) [%] | cell viability (Calu-3 [9]; 1000 nM) [%] | cell viability (Calu-3 [9]; 10000 nM) [%] | cell viability (Caco-2 [10]; 1 nM) [%] | cell viability (Caco-2 [10]; 10 nM) [%] | cell viability (Caco-2 [10]; 100 nM) [%] | cell viability (Caco-2 [10]; 1000 nM) [%] | cell viability (Caco-2 [10]; 10000 nM) [%] | relative viability EC50 (Vero E6 [11]) [µM] | relative viability EC50 (U2OS [12]) [µM] | relative viability EC50 (HepG2 [13]) [µM] | relative viability EC50 (Calu-3 [14]) [µM] | relative viability EC50 (Caco-2 [15]) [µM]
Cc1ccc(N2CCN(CC[C@H]3NC(=O)c4ccccc43)CC2)cc1C | 0 | 0 | 0 | 0 | 0 | 90.8 | 97.7 | 93.4 | 98.7 | 111 | 96.7 | 101 | 98.9 | 96.2 | 102 | 90.2 | 96.1 | 96.2 | 95.2 | 97.3 | 104 | 96.1 | 95.6 | 99.7 | 113 | 97.3 | 90.7 | 92.4 | 97 | 96.4 | > 10 | > 10 | > 10 | > 10 | > 10
CC(C)(C)CCN1C[C@@H]2[C@@H](CNC(=O)c3cc(Cl)cc(Cl)c3)[C@@H]2C1 [ML218] | 0 | 0 | 0 | 0 | 0 | 101 | 101 | 103 | 100 | 91.8 | 99.7 | 97.9 | 96.8 | 102 | 93.1 | 95.2 | 108 | 96.3 | 96.9 | 92.7 | 108 | 109 | 104 | 99.6 | 90.7 | 104 | 97.4 | 97.4 | 92.8 | 88.6 | > 10 | > 10 | > 10 | > 10 | > 10
CCN(CC)C(=O)N[C@H]1C[C@@H]2c3cccc4[nH]cc(c34)C[C@H]2N(C)C1 [terguride] | 0 | 0 | 0 | 0 | 0 | 105 | 106 | 104 | 99.8 | 97 | 96.4 | 95.3 | 94.5 | 99.1 | 94.7 | 104 | 105 | 95.9 | 92.9 | 102 | 106 | 97.4 | 95.2 | 105 | 115 | 88.6 | 93.3 | 108 | 97.2 | 99.5 | > 10 | > 10 | > 10 | > 10 | > 10
Nc1ccccc1NC(=O)c1ccc(CNc2nccc(-c3cccnc3)n2)cc1 [mocetinostat] | 13.9 | 10.4 | 12.5 | 13 | 9.2 | 95.4 | 94.7 | 78 | 43.4 | -0.1 | 98.4 | 97.2 | 100 | 64.2 | 0.3 | 102 | 100 | 88.9 | 44.2 | 1.1 | 102 | 89.6 | 86.8 | 40 | 17.7 | 95.6 | 100 | 102 | 64.4 | 17.7 | 0.567 | 1.26 | 0.756 | 0.405 | 1.12
NCCC(O)(P(=O)(O)O)P(=O)(O)O [pamidronate] | 0 | 0 | 0 | 0 | 0 | 100 | 94.8 | 96.2 | 97.9 | 101 | 98.7 | 101 | 95.6 | 101 | 99 | 106 | 105 | 97.5 | 108 | 106 | 92.7 | 111 | 100 | 98.9 | 93.8 | 87.2 | 104 | 106 | 96 | 97.2 | > 10 | > 10 | > 10 | > 10 | > 10
[N-]=[N+]=CC(=O)CC[C@H](N)C(=O)O [6-diazo-5-oxo-L-norleucine] | 0 | 0 | 0 | 0 | 0 | 94.2 | 95.8 | 86.8 | 95.6 | 103 | 104 | 102 | 104 | 98.3 | 104 | 97 | 105 | 98.8 | 97.2 | 112 | 102 | 90.6 | 96.4 | 95.2 | 98.1 | 95.4 | 90 | 97.8 | 95.8 | 92.7 | > 10 | > 10 | > 10 | > 10 | > 10
Cc1onc(-c2ccccc2)c1-c1ccc(S(N)(=O)=O)cc1 [valdecoxib] | 0 | 0 | 0 | 0 | 0 | 102 | 99.1 | 106 | 93.8 | 99.5 | 96.5 | 94.9 | 97.8 | 99.5 | 98.5 | 89.6 | 95.3 | 97.5 | 96 | 96.1 | 95.6 | 104 | 105 | 96.9 | 106 | 103 | 97.5 | 98 | 93.4 | 93.6 | > 10 | > 10 | > 10 | > 10 | > 10
CC(C)=CCC[C@]1(C)C=Cc2c(O)c3c(c(CC=C(C)C)c2O1)O[C@]12C(=C[C@@H]4C[C@H]1C(C)(C)O[C@@]2(C/C=C(/C)C(=O)O)C4=O)C3=O [gambogic-acid] | 16.7 | 18.8 | 15.4 | 16.6 | 18.5 | 105 | 104 | 106 | 6 | -0.3 | 98.8 | 102 | 94 | -0.1 | -0.3 | 97.6 | 93.6 | 99.3 | 15.6 | -0.4 | 100 | 138 | 111 | 4.7 | -0.3 | 90.7 | 102 | 94.9 | 1.9 | -0.1 | 0.4 | 0.269 | 0.51 | 0.404 | 0.288
CN=c1nc(-c2ccccc2)n(-c2ccccc2)s1 | 0 | 0 | 0 | 0 | 0 | 97.8 | 99.3 | 96.7 | 101 | 87.9 | 95.5 | 98.1 | 93.4 | 96.9 | 93.8 | 98.4 | 99.8 | 98 | 92.2 | 95.7 | 110 | 101 | 95.8 | 89.9 | 96 | 97.2 | 105 | 97 | 97.7 | 89 | > 10 | > 10 | > 10 | > 10 | > 10
CNC(=O)c1cccc(-c2ccc3c(N4CCOC[C@@H]4C)nc(N4CCOC[C@@H]4C)nc3n2)c1 [AZD2014] | 7.5 | 8.5 | 13 | 16.1 | 13.3 | 94.7 | 99.4 | 85.4 | 70.1 | 37.2 | 95.8 | 94.9 | 96.7 | 66.7 | 19.4 | 94 | 95.4 | 86.4 | 39 | 22 | 89.4 | 87.5 | 74.3 | 27.7 | 22.9 | 106 | 98.5 | 83.8 | 38.8 | 30.6 | 0.762 | 1.2 | 0.348 | 0.154 | 0.235
NC(=O)[C@@H]1CC[C@@H]2CN1C(=O)N2OS(=O)(=O)O [avibactam] | 0 | 0 | 0 | 0 | 0 | 95 | 96.5 | 97.6 | 97.1 | 98.6 | 97.2 | 94.6 | 101 | 96.9 | 98.7 | 114 | 109 | 90.9 | 98.4 | 97.8 | 94.8 | 81.7 | 104 | 91.3 | 104 | 101 | 92.5 | 92.5 | 95.7 | 92.7 | > 10 | > 10 | > 10 | > 10 | > 10
CC(=O)Oc1cccc(C(=O)O)c1OC(C)=O [dipyrocetyl] | 0 | 0 | 0 | 0 | 0 | 101 | 105 | 103 | 99.4 | 101 | 103 | 96.8 | 101 | 101 | 101 | 96 | 95.9 | 97.8 | 89.5 | 96.9 | 93.8 | 92.9 | 85.2 | 99.8 | 86.8 | 99.9 | 90.2 | 100 | 97 | 92 | > 10 | > 10 | > 10 | > 10 | > 10
CC(=O)NCCNc1cc(Cl)nn2c(-c3cccc(S(=O)(=O)N(C)C)c3)c(C)nc12 [MI-14] | 0 | 0 | 4.4 | 0.8 | 0.9 | 95.6 | 98 | 96.5 | 93.2 | 93.5 | 98.8 | 101 | 99.6 | 98.2 | 89.5 | 102 | 89.4 | 87.4 | 77.2 | 78.8 | 99.1 | 96.2 | 98.2 | 102 | 75.8 | 99.1 | 92.2 | 99.5 | 93.1 | 83.3 | > 10 | > 10 | > 10 | > 10 | > 10
NC(N)=O [urea] | 0 | 0 | 0 | 0 | 0 | 97.8 | 100 | 104 | 92.3 | 103 | 95.8 | 97.9 | 98.6 | 101 | 97.2 | 82.1 | 86.1 | 90.2 | 86.5 | 94.2 | 100 | 92.1 | 93.8 | 114 | 89.3 | 96.4 | 93.4 | 102 | 94.5 | 108 | > 10 | > 10 | > 10 | > 10 | > 10
